From US11925653B2, “Combination therapy effective against microorganisms, including drug resistant microorganisms” (Fleurir ABX LLC, priority 2021, dated 2024)

Columns and labels:
[1] = system: bacteria; assay: spontaneous mutational frequency (SMF; resistance); assay type: cell-based; conditions: resistant colonies observed divided by total inoculum; plates with 4-fold MIC of the combination or 2-fold MIC of each antibiotic alone
Procedure: MIC was further evaluated to confirm resistance, and the spontaneous mutational frequency was calculated based on the following equation: […]
The spontaneous mutational frequency (SMF; resistance) was calculated as the number of resistant colonies observed divided by the total inoculum.

[2] = system: H. influenzae; conditions: cited from earlier work
[3] = system: E. faecalis; conditions: cited from earlier work
[4] = representative pharmacokinetic parameters; assay type: in vivo; conditions: Dose: Fosfomycin 3000 mg, trimethoprim 720 mg
Description: The therapeutically effective amount may be modified by pharmacokinetic, and pharmacodynamic analysis as is understood in the field. In some embodiments, the novel composition may be provided prophylactically or preventatively or protectively, which may, in some instances, be at or below a therapeutically effective amount.

SMILES	frequency of spontaneous mutants resistant (spontaneous mutational frequency, SMF) [1]	MIC of co-trimoxazole, per component [2] [µg/mL]	MIC of co-trimoxazole, per component [3] [µg/mL]	kel (elimination rate constant) [4] [h⁻¹]	Tmax ([4]; sulfamethoxazole 3600 mg) [h]
O=C1CN(/N=C/c2ccc([N+](=O)[O-])o2)C(=O)N1 [nitrofurantoin]	3.40×10^−8	–	–	–	–
Cc1cc(NS(=O)(=O)c2ccc(N)cc2)no1 [sulfamethoxazole, N1-(5-methyl-3-isoxazolyl)sulfanilamide]	–	≤ 9.5	38	–	–
COc1cc(Cc2cnc(N)nc2N)cc(OC)c1OC [trimethoprim, 2,4-diamino-5-(3,4,5-trimethoxybenzyl)pyrimidine]	–	0.5	2	0.08	2
